The record followed here is the NIST ThermoML archive (doi:10.1016/j.tca.2016.04.023).

Each structure is given as a SMILES string. Where “and” joins values, the source holds several entries; their conditions need not be identical. Identical values can stand only once. ± gives the expanded uncertainty stated by the source.

Data set [1] can be described thus: Molar enthalpy of transition or fusion. Conditions: Crystal; DSC.
For data set [2] the following is noted: Crystal; DTA.

Turning to `O.O.O.O.O.O.[Ca+2].[Cl-].[Cl-]` [calcium chloride hexahydrate], the “Molar enthalpy of transition or fusion” value in data set [1] was 9.69 kcal/mol and 9.27 kcal/mol. The Normal melting temperature in data set [2] is 28.70 ± 1.1 °C and 28.30 ± 1.1 °C.
